The test system of series [1] is Rattus norvegicus. As to the kind of experiment: Increase blood pressure in rat at 1 mg/kg. The format is functional, organism-based. Details: dose 1 mg/kg.
For series [2], the species on record is Rattus norvegicus. In words: Agonist activity at adrenergic receptor in rat vas deferens at 0.165 ug/ml. Format: tissue-based.
Series [3] can be described thus: Metal chelating activity of the compound assessed as Cu2+ complex formation at 1 x 10' -3 M by spectrometry. Format: physicochemical. As to conditions: 1000 µM.
Series [4] deals with Rattus norvegicus. In words: Decrease in blood pressure in rat at 120 mg/kg. Format: functional, organism-based. Details: dose 120 mg/kg.
For series [5], the system named is Rattus norvegicus. As to the kind of experiment: Decrease in blood pressure in rat at 0.150 mg/kg. Set-up: dose 0.15 mg/kg. The format is functional, organism-based.
In series [6] the target is T1, Catechol O-methyltransferase (Homo sapiens) (UniProt P21964).
T1 sequence (whole entry): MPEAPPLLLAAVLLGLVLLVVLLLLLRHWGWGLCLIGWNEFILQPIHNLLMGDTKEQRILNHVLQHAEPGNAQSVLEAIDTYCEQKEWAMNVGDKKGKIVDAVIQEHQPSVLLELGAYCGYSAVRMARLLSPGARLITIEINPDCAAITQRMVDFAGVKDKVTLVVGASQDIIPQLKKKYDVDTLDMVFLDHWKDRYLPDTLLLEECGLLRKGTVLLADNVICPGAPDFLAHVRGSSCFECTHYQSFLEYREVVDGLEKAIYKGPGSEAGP
As to the kind of experiment: Activity of catechol-O-methyltransferase (unknown origin).

The target of series [7] is T1, Catechol O-methyltransferase (Homo sapiens). As to the kind of experiment: Inhibition of catechol-O-methyltransferase (unknown origin)-mediated l-norepinephrine methylation. The following applies: concentration not given here.
The species named for series [8] is Rattus norvegicus. As to the kind of experiment: Agonist activity at adrenergic receptor in rat vas deferens at 13 ug/ml. Format: tissue-based.
The species named for series [9] is Rattus norvegicus. In words: Potentiation of l-norepinephrine-induced adrenergic receptor activity in rat vas deferens assessed as contraction. Format: tissue-based.
Series [10] deals with Rattus norvegicus. As to the kind of experiment: Increase blood pressure in rat at 100 mg/kg. Details: dose 100 mg/kg. The format is functional, organism-based.

Activity calls are given as the source filed them. No cut-off for these calls is given here.

For `NC[C@@H](O)c1ccc(O)c(O)c1`, the result with Rattus norvegicus [1] and in the series listed under Rattus norvegicus [2] was Active.
As for `Br.NC[C@H](O)c1ccc(O)c(O)c1`, the result in series [3] was Active.
Same read-out and setting: to `Oc1ccccc1O` [CATECHOL] belongs “Active”.
For the molecule `CC(C)NCC(O)c1cccc(O)c1O` (configuration not stated), the result in the series with Rattus norvegicus [4] was Active.
In the case of `CC(C)NCC(O)c1ccc(O)c(O)c1` (racemic), in the series on Rattus norvegicus [5], the outcome was Active.
As to `Br.NCC(O)c1cccc(O)c1O` (configuration not stated), the Activity in series [6] was less than 5%; in [3], “Active”. This molecule also yielded an inhibition in series [7] of 25%. The outcome in the series filed under Rattus norvegicus [8], in the series filed under Rattus norvegicus [9] and with Rattus norvegicus [10] was Active.

One may read the inhibition as the change of the read-out against control, counted positive when it falls.
